Tested on: mouse vas deferens (MVD) preparations
Assay: Agonist potency in mouse vas deferens (MVD)
Type: biochemical
Conditions: arithmetic means of at least three experiments, read-out: IC50 (nM) ± SEM, MVD (Agonist Potencies of Parent Compounds)

CN(C(=O)Cc1ccc(Cl)c(Cl)c1)C(CN1CCCC1)c1ccc([N+](=O)[O-])cc1 (racemic) [Compound 23, 2-(3,4-Dichlorophenyl)-N-methyl-N-[(1R,S)-1-(4-nitrophenyl)-2-(1-pyrrolidinyl)ethyl]acetamide]
IC50: 197 ± 61 nM

— patent US5804595A, “Kappa opioid receptor agonists” (Regents of the University of Minnesota, priority 1995, dated 1998)
